The values below come from patent publication US20250295662A1, “USE OF CDK4/6 INHIBITOR IN TREATMENT OF DEDIFFERENTIATED LIPOSARCOMA” (priority 2022, published 2025).

Structures are written as SMILES.

For data set [1], the system named is dedifferentiated liposarcoma. The data set is described as follows: Clinical trial in dedifferentiated liposarcoma: safety (NCI-CTC AE 5.0). It is filed as in vivo, human. As to conditions: patients, 28-day cycle. An excerpt:
(§1) In this study, a randomized, double-blind, placebo-controlled parallel trial design or a single arm trial design was employed. For the parallel control trial, after all patients signed the informed consent, subjects eligible for enrollment by screening were randomized (1:1) into two groups, i.e., a test group given the capsule of the compound of formula I and a control group given the placebo of the capsule of the compound of formula I, with 4 weeks (28 days) being 1 cycle; for the single arm trial, the administration regimen was the same as that for the test group of the parallel control trial. The efficacy and safety of the capsule of the compound of formula I in the treatment of dedifferentiated liposarcoma was evaluated by the clinical trials of the present disclosure.
(§2) Hemoglobin (HGB) ≥90.0 g/L; • b. Absolute neutrophil count (ANC) ≥1.5×10^9/L; • c. Platelet count (PLT) ≥90×10^9/L; • 2) Biochemical examination criteria: • a. Total bilirubin (TBIL) ≤1.5×upper limit of normal ULN; for patients with Gilbert syndrome, ≤3×ULN; • b. Alanine aminotransferase (ALT) and aspartate aminotransferase (AST) ≤3×ULN. If liver metastasis is accompanied, ALT and AST ≤5×ULN; • c.
(§3) Capsules of the compound of formula (I): strength: 50 mg or 60 mg, provided by Chia Tai Tianqing Pharmaceutical Group Co., Ltd.
(§4) Capsules of the compound of formula (I): 180 mg/each administration (based on the compound of formula (I)), oral administration at fasting, once daily, and 28 consecutive days of administration as one treatment cycle. Placebo of the capsule of the compound of formula (I): 0 mg/each administration (based on the compound of formula (I)), oral administration at fasting, once daily, and 28 consecutive days of administration as one treatment cycle.
Safety evaluation criteria: the severity of adverse events was determined using the NCI-CTC AE 5.0 criteria. Adverse event record forms including time of occurrence, severity, relevance to the studied treatment, duration, measures taken, and the final state of the subject should be faithfully filled out during the trial.

In data set [2] the test system is dedifferentiated liposarcoma. The data set is described as follows: Clinical trial in dedifferentiated liposarcoma: efficacy (RECIST 1.1). The class given is in vivo, human. As to conditions: 180 mg oral once daily.
From the text: as §1, §2, §3, §4
Efficacy evaluation criteria: disease state was determined using the RECIST 1.1 criteria.

Where [3] appears, read: capsules 180 mg oral once daily.

In the case of `CC(C)c1c2cc(-c3nc(Nc4ccc(N5CCNCC5)cn4)ncc3F)ccc2nn1C` [compound of formula (I)], the “Gastrointestinal reactions (diarrhea, vomiting, and the like), grade” value in data set [1] (capsules 180 mg oral at fasting once daily, mainly this grade, controlled after symptomatic treatment) is listed as 1-2 grade. Also, in data set [1] (setting [3]), the “total incidence rate of TEAEs of grade 3 or above” value stood at 9% and the total safety entry was “good”. For the same compound, the “PFS, OS, ORR, DCR and DOR of the patients that could be evaluated” value in data set [2] (28-day cycle) is “all good”. The “12-week PFS rate” value in data set [2] (15 subjects who had achieved the evaluation of C3 (12 weeks) efficacy) is given as 60%. Further, the “patients who achieved 12-week PFS” value in data set [2] (of the 15 subjects evaluated at C3 (12 weeks)) was found to be 9 patients.
